This assay addresses Substance-P receptor (Rattus norvegicus, UniProt P14600). The experiment in a line: ChEBML_1632341. The procedure:
Displacement of [Leu-3,4,5-3H(N)]-Substance P from NK1 receptor in rat brain homogenate measured after 60 mins by microbeta scintillation counting analysis

Substance-P receptor, sequence (P14600 whole entry): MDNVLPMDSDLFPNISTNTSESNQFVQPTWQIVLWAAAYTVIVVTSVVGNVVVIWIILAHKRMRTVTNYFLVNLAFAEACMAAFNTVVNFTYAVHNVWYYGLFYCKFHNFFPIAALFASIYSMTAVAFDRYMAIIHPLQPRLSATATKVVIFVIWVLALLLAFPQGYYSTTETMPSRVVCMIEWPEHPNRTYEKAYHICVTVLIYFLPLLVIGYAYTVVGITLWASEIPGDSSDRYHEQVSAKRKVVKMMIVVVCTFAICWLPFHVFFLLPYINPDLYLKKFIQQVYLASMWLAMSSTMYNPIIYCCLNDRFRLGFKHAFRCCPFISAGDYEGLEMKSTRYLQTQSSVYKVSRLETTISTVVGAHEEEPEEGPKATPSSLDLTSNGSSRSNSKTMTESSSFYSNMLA

What is called IC50 is the concentration needed to halve the response being measured. A low value points to greater potency. Regarding `C[C@@H](NC(=O)[C@@H](N)Cc1ccc(O)cc1)C(=O)NCC(=O)N[C@@H](Cc1ccccc1)C(=O)NN=Cc1cc(C(F)(F)F)cc(C(F)(F)F)c1`, the midpoint of inhibition, the IC50, lay at 4.2 nM.

The record behind these values is BindingDB's records for doi:10.1021/acsmedchemlett.6b00381 (Mossakowski Medical Research Centre Polish Academy of …, 2017).
